Data set [1] has as its target T1, Prostaglandin E2 receptor EP1 subtype (Homo sapiens, UniProt P34995).
T1 sequence (P34995 whole entry): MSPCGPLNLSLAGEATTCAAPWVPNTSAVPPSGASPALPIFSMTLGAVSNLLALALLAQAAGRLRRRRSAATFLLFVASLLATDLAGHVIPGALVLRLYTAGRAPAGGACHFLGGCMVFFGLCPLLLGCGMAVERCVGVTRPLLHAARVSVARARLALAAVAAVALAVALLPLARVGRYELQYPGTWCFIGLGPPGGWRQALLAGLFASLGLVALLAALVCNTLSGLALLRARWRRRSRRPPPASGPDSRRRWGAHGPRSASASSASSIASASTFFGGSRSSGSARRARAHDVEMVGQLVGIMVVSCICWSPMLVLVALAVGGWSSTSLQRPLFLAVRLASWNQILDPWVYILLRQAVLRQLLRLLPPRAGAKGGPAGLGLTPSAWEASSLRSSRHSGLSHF
In words: Binding affinity to human EP1 receptor by competitive binding assay.

Data set [2] has as its target Prostaglandin E2 receptor EP2 subtype (Homo sapiens, UniProt P43116). In words: Binding affinity to human EP2 receptor by competitive binding assay.
A short description of data set [3]: Cmax in fasted dog at 2.5 mg/kg, po. In kind it is ADME, organism-based, Canis lupus familiaris. The arrangement: dose 2.5 mg/kg, route oral. Particulars: in vivo.
The target in the next data set is Prostacyclin receptor (Homo sapiens, UniProt P43119). The data set can be described thus: Binding affinity to human IP receptor by competitive binding assay.
The nature of data set [4]: Oral bioavailability in fasted dog at 2.5 mg/kg. In kind it is ADME, organism-based, Canis lupus familiaris. Particulars: in vivo.
For data set [5], the target named is Prostaglandin E2 receptor EP4 subtype (Homo sapiens, UniProt P35408). The data set can be described thus: Binding affinity to human EP4 receptor by competitive binding assay.
Another data set addresses T2, Thromboxane A2 receptor (Homo sapiens, UniProt P21731).
T2 sequence (P21731 whole entry): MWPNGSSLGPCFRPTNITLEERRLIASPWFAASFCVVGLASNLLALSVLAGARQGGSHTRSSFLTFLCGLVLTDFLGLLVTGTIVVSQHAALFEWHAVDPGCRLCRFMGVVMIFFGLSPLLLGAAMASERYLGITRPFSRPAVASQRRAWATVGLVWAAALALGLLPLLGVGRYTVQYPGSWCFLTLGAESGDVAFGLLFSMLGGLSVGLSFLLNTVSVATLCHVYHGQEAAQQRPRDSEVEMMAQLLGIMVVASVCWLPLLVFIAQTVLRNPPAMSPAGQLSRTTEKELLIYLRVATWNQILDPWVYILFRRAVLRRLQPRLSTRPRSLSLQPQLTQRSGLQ
In words: Binding affinity to human TP receptor by competitive binding assay.

The target in data set [6] is Prostaglandin F2-alpha receptor (Homo sapiens, UniProt P43088). The data set can be described thus: Binding affinity to human FP receptor by competitive binding assay.
For data set [7], the target named is T3, Prostaglandin E2 receptor EP3 subtype (Homo sapiens, UniProt P43115).
T3 sequence (P43115 whole entry): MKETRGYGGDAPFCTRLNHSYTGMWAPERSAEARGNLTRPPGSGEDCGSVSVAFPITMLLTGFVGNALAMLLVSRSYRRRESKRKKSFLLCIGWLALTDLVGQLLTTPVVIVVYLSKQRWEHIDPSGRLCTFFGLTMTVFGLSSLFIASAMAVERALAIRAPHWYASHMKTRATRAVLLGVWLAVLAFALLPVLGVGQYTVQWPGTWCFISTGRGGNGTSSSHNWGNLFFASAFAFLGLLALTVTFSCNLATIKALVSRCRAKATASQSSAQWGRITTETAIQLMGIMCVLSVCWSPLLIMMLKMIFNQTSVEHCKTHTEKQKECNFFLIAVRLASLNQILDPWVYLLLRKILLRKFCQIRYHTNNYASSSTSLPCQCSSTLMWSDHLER
The data set can be described thus: Binding affinity to human EP3 receptor by competitive binding assay.

Prostacyclin receptor, sequence (P43119 whole entry): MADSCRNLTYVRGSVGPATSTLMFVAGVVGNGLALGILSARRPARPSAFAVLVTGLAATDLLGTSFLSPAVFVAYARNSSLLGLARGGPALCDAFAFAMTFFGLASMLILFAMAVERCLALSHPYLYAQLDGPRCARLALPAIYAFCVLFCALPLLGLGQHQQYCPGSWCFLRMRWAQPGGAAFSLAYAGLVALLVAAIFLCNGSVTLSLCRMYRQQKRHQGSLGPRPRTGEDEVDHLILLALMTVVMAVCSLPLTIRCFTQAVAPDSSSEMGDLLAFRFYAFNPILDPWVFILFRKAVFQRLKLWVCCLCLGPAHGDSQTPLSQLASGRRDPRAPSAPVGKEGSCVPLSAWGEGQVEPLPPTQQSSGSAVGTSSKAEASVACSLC
Prostaglandin F2-alpha receptor, sequence (P43088 whole entry): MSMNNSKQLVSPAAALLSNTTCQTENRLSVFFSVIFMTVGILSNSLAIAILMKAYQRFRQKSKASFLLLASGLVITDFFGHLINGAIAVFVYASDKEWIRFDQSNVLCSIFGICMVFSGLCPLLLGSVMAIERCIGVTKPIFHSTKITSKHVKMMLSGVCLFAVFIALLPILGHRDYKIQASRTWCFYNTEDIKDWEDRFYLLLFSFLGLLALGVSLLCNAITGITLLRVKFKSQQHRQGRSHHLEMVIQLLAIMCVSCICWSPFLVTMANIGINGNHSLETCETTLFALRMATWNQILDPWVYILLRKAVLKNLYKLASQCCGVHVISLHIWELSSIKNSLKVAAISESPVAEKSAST
Prostaglandin E2 receptor EP2 subtype, sequence (P43116 whole entry): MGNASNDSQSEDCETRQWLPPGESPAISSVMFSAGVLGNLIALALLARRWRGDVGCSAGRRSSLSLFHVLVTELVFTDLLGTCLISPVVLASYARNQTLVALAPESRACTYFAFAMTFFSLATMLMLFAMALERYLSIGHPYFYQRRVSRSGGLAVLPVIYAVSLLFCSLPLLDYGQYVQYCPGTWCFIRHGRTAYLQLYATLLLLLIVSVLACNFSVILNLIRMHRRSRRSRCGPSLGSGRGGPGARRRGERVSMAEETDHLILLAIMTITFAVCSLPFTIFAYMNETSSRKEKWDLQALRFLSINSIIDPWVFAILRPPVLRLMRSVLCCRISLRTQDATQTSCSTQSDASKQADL
Prostaglandin E2 receptor EP4 subtype, sequence (P35408 whole entry): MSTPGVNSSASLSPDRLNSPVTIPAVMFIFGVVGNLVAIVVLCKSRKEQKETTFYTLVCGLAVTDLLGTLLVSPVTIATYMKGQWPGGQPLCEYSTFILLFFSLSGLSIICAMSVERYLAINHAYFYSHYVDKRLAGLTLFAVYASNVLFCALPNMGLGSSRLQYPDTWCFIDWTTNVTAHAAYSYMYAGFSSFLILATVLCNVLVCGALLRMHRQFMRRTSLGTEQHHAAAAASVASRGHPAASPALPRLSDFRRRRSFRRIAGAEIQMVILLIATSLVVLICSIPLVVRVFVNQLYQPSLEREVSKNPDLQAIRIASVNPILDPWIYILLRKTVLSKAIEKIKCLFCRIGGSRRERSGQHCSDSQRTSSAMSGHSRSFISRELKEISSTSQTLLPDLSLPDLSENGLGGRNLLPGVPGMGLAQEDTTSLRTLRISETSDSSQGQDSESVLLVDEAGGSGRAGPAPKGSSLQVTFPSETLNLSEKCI

Regarding `Cc1ccc(N(CCN2CCC(OCC(=O)O)CC2)C(=O)c2ccccc2)cc1`, the Ki – broadly, a measure of affinity in units of concentration, obtained from inhibition or displacement – in [1] was over 50 µM; in data set [2] it was over 50 µM; on Prostacyclin receptor, 0.99 µM; in [5], over 50 µM; on Thromboxane A2 receptor, over 50 µM; in data set [6], over 50 µM. In [7], this compound yielded a Ki of over 50 µM. For the same compound, the Cmax (as a rule, the peak of the concentration-time curve) in data set [3] came to 1610 ng/mL. The bioavailability (usually the share of a dose that reaches the circulation, judged against a reference dose that is usually intravenous) in data set [4] is 77%.

Take `O=C(O)COc1cccc2c1OCCN2CCN(C(=O)c1ccccn1)c1ccc(Cl)cc1`: the Cmax in [3] is 138 ng/mL. The compound also yielded a bioavailability in data set [4] of 13%.
